Some test systems named below: HT-29; HL-60; UACC-257; A549; SW-620; MDA-N; SF-539; SK-OV-3; UACC-62; PC-3; HOP-92; DU-145; SR; NCI-H23; SNB-75; IGROV-1; HCT-15; KM12; TK-10; SN12C.
Holding throughout (experiment): NCI-60 cell line screen, 48 h

This note sets out measurements from ChEMBL document CHEMBL1201862, “PubChem BioAssay data set” (2004).

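Following 48 hours of exposure in 96-well plates, responses at five concentrations were used to interpolate endpoints linearly. Here, GI50 denotes the concentration required for 50% inhibition of growth.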 The source made the active and inactive calls. Rule as the data show it: active = GI50 up to about 1.1 µM and inactive = higher. Where only a bound is given, the exact number is not on record here.

In the case of `O=[N+]([O-])c1cc(/C=N/C23CC4CC(CC(C4)C2)C3)ccc1Cl`, the GI50 is 19.1 µM (inactive) in the assay with HT-29; 3.03 µM (inactive) in the assay on HL-60; 20.7 µM (inactive) with UACC-257; > 100 µM (inactive) with A549; 13 µM (inactive) in the assay with SW-620; 8.02 µM (inactive) in the assay on MDA-N. For the same compound, the GI50 was 22.9 µM (inactive) in the assay with SF-539; 18.4 µM (inactive) in the assay on SK-OV-3; 14.3 µM (inactive) in the assay with UACC-62; 19.8 µM (inactive) with PC-3; 34.5 µM (inactive) in the assay on HOP-92; 27.8 µM (inactive) in the assay with DU-145. The GI50 is 4.37 µM (inactive) in the assay on SR; 19.1 µM (inactive) in the assay with NCI-H23; 36.2 µM (inactive) in the assay on SNB-75; 23.6 µM (inactive) in the assay on IGROV-1; 22.6 µM in the assay with HCT-15; 17.1 µM (inactive) in the assay on KM12. In addition, the GI50 was 29.7 µM (inactive) in the assay on TK-10 and 15.9 µM (inactive) with SN12C.

Take `CCCC1NC(C#N)(C#N)C(CCC)NC1(C#N)C#N` (stereo not given): the GI50 with HT-29 is 0.115 µM (active); in the assay on HL-60, < 0.0107 µM (active); with UACC-257 it was > 100 µM (inactive); with A549, 14.3 µM (inactive); with SW-620, < 0.012 µM (active); with MDA-N, 0.285 µM (active). Further, the GI50 with SF-539 is 0.197 µM (active); in the assay on SK-OV-3 it was 35.9 µM (inactive); with UACC-62, 17.4 µM (inactive); with PC-3, 0.318 µM (active); with HOP-92 it was 0.488 µM (active); in the assay on DU-145 it was 3.78 µM (inactive). Also, the GI50 with SR was < 0.0173 µM (active); in the assay with NCI-H23, 2.49 µM (inactive); in the assay on SNB-75 it was 2.17 µM (inactive); with IGROV-1, 1.42 µM (inactive); in the assay on HCT-15 it was 0.105 µM; in the assay with KM12, 9.25 µM (inactive). The GI50 in the assay on TK-10 is 1.01 µM (active); in the assay on SN12C, 1.11 µM (active).

For the compound `S=c1[nH]c2ccc(Br)cc2c(=S)s1`, the GI50 with HT-29 is 24.4 µM (inactive); in the assay with HL-60, 21.6 µM (inactive); in the assay with UACC-257, 23.5 µM (inactive); with A549, 30.6 µM (inactive); in the assay on SW-620 it was 30.8 µM (inactive); in the assay with MDA-N, 23.4 µM (inactive). In addition, the GI50 in the assay on SF-539 was 34.4 µM (inactive); with SK-OV-3, 30 µM (inactive); with UACC-62 it was 18 µM (inactive); in the assay with PC-3 it was 19.3 µM (inactive); in the assay on HOP-92, 16.6 µM (inactive); with DU-145, 38.1 µM (inactive). Besides, the GI50 was 38.5 µM (inactive) in the assay on SR; 25.6 µM (inactive) with NCI-H23; 28.1 µM (inactive) with SNB-75; 22.1 µM (inactive) in the assay on IGROV-1; 29.5 µM in the assay with HCT-15; 29.4 µM (inactive) with KM12. The GI50 with TK-10 is 32.9 µM (inactive); in the assay with SN12C, 19.9 µM (inactive).

Turning to `CN(C)c1n/c(=N/Cc2ccccc2)ss1`, the GI50 in the assay on HT-29 is > 10 µM (inactive); in the assay on HL-60, > 5.2 µM (inactive); in the assay with UACC-257, > 10 µM (inactive); in the assay on A549 it was > 10 µM (inactive); in the assay with SW-620, > 10 µM (inactive); with MDA-N, > 10 µM (inactive). Besides, the GI50 in the assay on SF-539, in the assay on SK-OV-3, in the assay on UACC-62, in the assay with PC-3, with HOP-92 and in the assay with DU-145 was > 10 µM (inactive) throughout. The GI50 in the assay on SR is 0.587 µM (active); in the assay on NCI-H23 it was > 10 µM (inactive); in the assay with SNB-75, > 10 µM (inactive); in the assay on IGROV-1, > 10 µM (inactive); with HCT-15 it was above 10 µM; with KM12, > 10 µM (inactive). Further, the GI50 in the assay with TK-10 and in the assay with SN12C was > 10 µM (inactive) in each case.
